According to PMC3098219, “Protective Efficacy of Serially Up-Ranked Subdominant CD8^+ T Cell Epitopes against Virus Challenges” (PLoS Pathogens, 2011):

Assays:
[1] = test system: CD8^+ splenocytes of immunized mice; type: cell-based, BALB/c mice; settings: HIVAdH vs HIVA immunization; ex vivo ICS, Figure 1D
CD8^+ T cells [2] = test: ICS of HIVB-induced responses pre- and post-EcoHIV challenge; settings: Figure 7B, pTH.HIVB DNA twice
[3] = test system: H-2D^d, H-2K^d or H-2L^d complexes; test: T2 peptide binding assay, respective MHC class I complexes; settings: Figure 3A; TAP-deficient T2 cells, 100 µM to 0.1 µM peptide, 14 h at 37°C, FACS
Method: Figure 3 Contributing mechanisms of immunodominance. […] T2 cell lines were incubated with decreasing peptide concentrations ranging from 100 µM to 0.1 µM indicated above the H peptide histogram and the cell surface peptide-loaded MHC complexes were detected by fluorochrome-conjugated mAb (DB Biosciences) and quantified using FACS flow cytometer. B) and C) Groups of 3 BALB/c mice were given 3x immunizations using 100 µg of DNA expressing the index or mutated forms of HIVA at 3 wk intervals and their T cell responses were analyzed 4 wk later. B) Splenocytes were assessed in an ICS assay using peptides indicated above the graphs at concentrations ranging from 10 to 10^−8 µM for 5 h. Cells were gated on IFN-γ-producing CD8^+ T cell populations positive (top) or negative (bottom) for CD107a/b. Note the different y-axis scales on the top and bottom graphs. C) The response kinetics of CD8^+ T cells re-stimulated with 0.1 µM peptides was assessed in an ICS assay in 1-h intervals for a period of 4 h. Data shown are as mean±SD of [CD8^+CD107a/b^+IFN-γ^+ cells at each time point (%)] ÷ [CD8^+CD107a/b^+IFN-γ^+ at 4 h (%)]. One out of two independent experiments is shown.
TAP2 ([…])-deficient T2 cell lines stably expressing D^d, K^d, and L^d molecules kindly provided by Dr. Ted Hansen (Washington university, U.S.A.) were used to assess the ability of MHCs to bind each peptide. In brief, 1×10^5 cells were incubated with 0/0.1/1.0/10/100 µM peptides in no-serum RPMI (R-0) for 14 h at 37°C, 5% CO2 in a flat-bottomed 96-well plate. 14 h later, cells were transferred to a round-bottomed 96-well plate and washed with PBS before staining the cells with anti-H-2K^d/H-2D^d-PE or anti-H-2L^d-PE (eBioscience) monoclonal antibodies. Cells were then analyzed on a FACS flow cytometer.

H-2K^d = H-2K^d (Mus musculus, UniProt P01902); settings: ref [34]; cited from earlier work
Text: Our research interests lie in development of the T cell component of HIV-1 vaccines stimulating protective CD8^+ T cell responses. The first-generation T cell immunogen, designated HIVA (Figure 1A), has served as an extremely useful tool for iterative improving of CD8^+ T cell induction by experimental vaccines in mice, non-human primates and humans [reviewed in [30]]. To increase the power of T cell analysis and study the role of subdominant determinants, H-2^d class I-restricted epitopes contained in the HIVA immunogen were mapped in detail. Thus, the most immunodominant epitope of ...

CD8^+ T cells [4] = test: Immunodominance hierarchy of T cell responses to HIVA-derived epitopes; type: cell-based, BALB/c mice; settings: 10 d after immunization
[5] = test system: CD8^+ splenocytes of DNA-immunized mice; test: ICS T cell avidity (peptide titration, CD107a/b and IFN-γ); type: cell-based, BALB/c mice; settings: Figure 3B; individual determinants when dominant: H in group HIVA, P in HIVAdH, G1 in dHmP, NPP in dHmPG1; 3x 100 µg DNA; 5 h
Method: T2 cell lines were incubated with decreasing peptide concentrations ranging from 100 µM to 0.1 µM indicated above the H peptide histogram and the cell surface peptide-loaded MHC complexes were detected by fluorochrome-conjugated mAb (DB Biosciences) and quantified using FACS flow cytometer. B) and C) Groups of 3 BALB/c mice were given 3x immunizations using 100 µg of DNA expressing the index or mutated forms of HIVA at 3 wk intervals and their T cell responses were analyzed 4 wk later. B) Splenocytes were assessed in an ICS assay using peptides indicated above the graphs at concentrations ranging from 10 to 10^−8 µM for 5 h. Cells were gated on IFN-γ-producing CD8^+ T cell populations positive (top) or negative (bottom) for CD107a/b. Note the different y-axis scales on the top and bottom graphs. C) The response kinetics of CD8^+ T cells re-stimulated with 0.1 µM peptides was assessed in an ICS assay in 1-h intervals for a period of 4 h. Data shown are as mean±SD of [CD8^+CD107a/b^+IFN-γ^+ cells at each time point (%)] ÷ [CD8^+CD107a/b^+IFN-γ^+ at 4 h (%)]. One out of two independent experiments is shown.
We also measured avidities of T cell responses recovered through the sequential HIVA epitope up-ranking. First, responsiveness of immune splenocytes following 3 plasmid DNA deliveries was measured in an ICS assay upon re-stimulation with peptide concentrations ranging from 10^−8 to 10 µM for 5 h (Figure 3A).

H-2K^d, sequence (P01902 whole entry, looked up): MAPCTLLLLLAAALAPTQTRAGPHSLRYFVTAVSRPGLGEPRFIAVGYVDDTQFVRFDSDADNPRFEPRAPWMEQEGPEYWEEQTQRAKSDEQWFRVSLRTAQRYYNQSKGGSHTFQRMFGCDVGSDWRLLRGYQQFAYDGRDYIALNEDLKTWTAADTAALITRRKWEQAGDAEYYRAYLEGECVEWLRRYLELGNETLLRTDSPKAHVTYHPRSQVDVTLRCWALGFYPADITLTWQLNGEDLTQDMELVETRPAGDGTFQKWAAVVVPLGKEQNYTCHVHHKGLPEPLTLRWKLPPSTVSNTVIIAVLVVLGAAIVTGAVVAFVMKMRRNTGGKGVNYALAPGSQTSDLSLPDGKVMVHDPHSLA

## AMQMLKDTI [G1, H-2K^d-restricted, Gag residues 197–205]
[1]
  frequencies of IFN-γ-producing CD8^+ cells: noticeably, though not significantly increased
CD8^+ T cells [2]
  CD8^+ T cell response after HIVB vaccination: the only detectable CD8^+ T cell response
[3]
  peptide binding affinities for respective MHC class I: directly correlated with the immunodominance hierarchy
H-2K^d
  MHC class I restriction (H-2K^d): H-2K^d-restricted
CD8^+ T cells [4]
  hierarchy of T cell responses against HIVA-derived epitopes: H>P>>G1>NPP>>G2
[5]
  peak IFN-γ^+CD107a/b^+CD8^+ cell frequencies at 10 µM peptide: 3.8 % of total CD8^+ splenocytes
